Data taken from patent US5688943A, “Benzodiazepine derivatives useful as CCK-receptor antagonists” (Yamanouchi Pharmaceutical Co., Ltd., priority 1992, dated 1997).

Tests used:
CCK-B receptors = molecular target: T1, CCK-B receptors (Rattus norvegicus, UniProt P30553); test: Measurement of binding affinity for CCK-B receptors ([125I]BH-CCK-8, rat brain membranes); design: species or system SD rats; conditions: for IC50: rat brain membranes, [125I]BH-CCK-8, 25° C., 120 minutes, pH 6.5, read-out: Receptor binding affinity IC50, CCK-B; for A/B Ratio: ratio IC50 (CCK-A)/IC50 (CCK-B)
T1 construct: the whole brain was immediately excised from each of the rats and homogenized; from tissue; host or cells: SD rat whole brain membranes
T1 sequence (P30553 whole entry): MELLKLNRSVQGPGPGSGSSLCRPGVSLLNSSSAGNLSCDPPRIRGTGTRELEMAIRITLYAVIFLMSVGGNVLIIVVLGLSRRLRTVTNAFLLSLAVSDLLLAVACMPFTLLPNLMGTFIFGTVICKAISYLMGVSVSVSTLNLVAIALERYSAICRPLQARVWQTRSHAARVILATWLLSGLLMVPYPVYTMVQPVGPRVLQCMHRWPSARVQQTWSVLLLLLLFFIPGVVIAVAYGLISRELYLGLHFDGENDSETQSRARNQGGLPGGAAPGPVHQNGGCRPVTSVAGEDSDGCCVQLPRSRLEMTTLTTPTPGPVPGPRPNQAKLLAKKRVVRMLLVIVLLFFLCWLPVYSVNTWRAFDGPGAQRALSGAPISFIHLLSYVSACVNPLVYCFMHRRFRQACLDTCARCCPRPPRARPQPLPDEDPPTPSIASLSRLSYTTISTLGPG
Experimental: Measurement of binding affinity for CCK-B receptors
About 100 SD rats were decapitated without anaesthesia, the whole brain was immediately excised from each of the rats and homogenized in 10-fold volume of 0.32M aqueous solution of sucrose by the use of a Teflon-coated homogenizer, the homogenate thus obtained was centrifuged for ten minutes at 900 g by the use of a cooled centrifuge, and the supernatant was further centrifuged for 15 minutes at 11500 g. The precipitate thus obtained was dispersed in 50 mM Tris-HCl buffer (pH 7.4) containing 0.08% Triton X-100, this suspension was allowed to stand for 30 minutes and again centrifuged for 15 minutes at 11500 g, the precipitate thus obtained was washed twice with 5 mM Tris-HCl buffer and twice with 50 mM Tris-HCl buffer in that order with centrifugal separation, the washed precipitate was suspended in 50 mM Tris-HCl buffer, and the suspension thus obtained was stored at -80° C. until the membrane preparation was required.
The membrane preparations were warmed to room temperature, diluted with 10 mM HEPES buffer (containing 130 mM NaCl, 5 mM MgCl2, 1 mM EGTA and 0.25 mg/ml bacitracin; pH 6.5) and incubated at 25° C. for 120 minutes in the presence of [^125 I]BH-CCK-8 and the test compound, then separated by suction filtration. Non-specific binding was determined in the presence of 1 μM CCK-8. The amount of labelled ligand bound to the receptor was measured by the use of a γ-counter; IC50 values were determined, being that concentration of test compound required to inhibit specific binding by 50%.
(§1) A high affinity for the CCK-A receptor in a gastrin/CCK-B antagonist is thought to be undesirable as it may lead to side-effects such as cholestasis and gall stone formation during therapy. Therefore it is preferable for the therapeutic agent to be selective for the CCK-B receptor. This selectivity is expressed by the ratio IC50 (CCK-A)/IC50 (CCK-B); the higher the value of this ratio the better is the selectivity.

CCK-A receptors = molecular target: T2, CCK-A receptors (Rattus norvegicus, UniProt P30551); test: Measurement of binding affinity for CCK-A receptors ([3H]L-364,718, rat pancreas membranes); design: species or system SD rat; conditions: [3H]L-364,718, 37° C., 30 minutes, read-out: Receptor binding affinity IC50, CCK-A
T2 construct: The pancreas of an SD rat was homogenized; from tissue; host or cells: SD rat pancreas membranes
T2 sequence (P30551 1-444): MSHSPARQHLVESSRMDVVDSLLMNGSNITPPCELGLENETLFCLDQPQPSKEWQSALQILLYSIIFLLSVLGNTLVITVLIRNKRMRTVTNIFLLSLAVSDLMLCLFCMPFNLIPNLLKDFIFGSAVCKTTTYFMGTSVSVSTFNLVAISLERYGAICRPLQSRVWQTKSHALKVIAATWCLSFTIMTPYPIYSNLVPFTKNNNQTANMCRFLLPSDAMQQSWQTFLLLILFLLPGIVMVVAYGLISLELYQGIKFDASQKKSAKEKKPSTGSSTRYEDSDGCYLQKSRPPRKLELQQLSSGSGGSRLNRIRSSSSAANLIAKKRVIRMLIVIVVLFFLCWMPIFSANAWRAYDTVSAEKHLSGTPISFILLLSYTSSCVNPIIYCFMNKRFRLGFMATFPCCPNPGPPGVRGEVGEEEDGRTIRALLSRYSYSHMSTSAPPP
Experimental: Measurement of binding affinity for CCK-A receptors
The pancreas of an SD rat was homogenized in a 20-fold volume of 50 mM Tris-HCl buffer (pH 7.7) by the use of a Polytrone-type homogenizer, the homogenate was twice centrifuged for 10 minutes at 50000 g by the use of an ultra-centrifuge, the precipitate thus obtained was suspended in a 40-fold volume of 50 mM Tris-HCl buffer (containing 0.2% BSA, 5 mM MgCl2, 0.1 mg/ml bacitracin and 5 mM DTT; pH 7.7), and the suspension was stored at -80° C. until the membrane preparations were required.
The membrane preparations were then warmed to room temperature, diluted 1:10 with the buffer and incubated at 37° C. for 30 minutes in the presence of [^3 H]L-364,718 and the test compound then separated by suction filtration. Non-specific binding was determined in the presence of 1 μM L-364,718. The amount of labelled ligand bound to the receptor was measured by the use of a liquid scintillation counter; IC50 values were determined, being that concentration of test compound required to inhibit specific binding by 50%
as §1

Structure (SMILES) | IC50 (CCK-B receptors) [nM] | A/B Ratio (CCK-B receptors) | IC50 (CCK-A receptors) [nM]
O=C(Nc1cccc(C(=O)O)c1)N[C@@H]1N=C(c2ccccc2)c2ccccc2N(C[C@H](O)C2CCCC2)C1=O [Example 25, N-((3R)-1-((2R)-2-Cyclopentyl-2-hydroxyethyl)-2,3-dihydro-2-oxo-5-phenyl-1H-1,4-benzodiazepin-3-yl)-N'-(3-carboxyphenyl)urea] | 0.65 | > 15,000 | > 10000
CC(C)(C)C(=O)CN1C(=O)C(NC(=O)Nc2cccc([N+](=O)[O-])c2)N=C(c2ccccc2)c2ccccc21 (racemic) [Example 45, N-((3RS)-1-tert-Butylcarbonylmethyl-2,3-dihydro-2-oxo-5-phenyl-1H-1,4-benzodiazepin-3-yl)-N'-(3-nitrophenyl)urea] | 0.16 |  | 
Cc1cccc(NC(=O)NC2N=C(c3ccccc3)c3ccccc3N(CC(=O)C3(C)CCCCC3)C2=O)c1 (racemic) [Example 34, N-((3RS)-1-((1-Methylcyclohexyl)carbonylmethyl)-2,3-dihydro-2-oxo-5-phenyl-1H-1,4-benzodiazepin-3-yl)-N'-(3-methylphenyl)urea] |  | > 26,000 | > 10000
NC(=O)c1cccc(NC(=O)NC2N=C(c3ccccc3)c3ccccc3N(CC(=O)C3CCCC3)C2=O)c1 (racemic) [Example 35, N-((3RS)-1-Cyclopentylcarbonylmethyl-2,3-dihydro-2-oxo-5-phenyl-1H-1,4-benzodiazepin-3-yl)-N'-(3-carboxamidophenyl)urea] | 1.1 | 1,700 | 1900
CC(=O)N1CCC[C@H]1C(=O)CN1C(=O)C(NC(=O)Nc2cccc(C)c2)N=C(c2ccccc2)c2ccccc21 (mixture of isomers) [Example 9, N-((3RS)-1-((2S)-1-Acetyl-2-pyrrolidylcarbonylmethyl)-2,3-dihydro-2-oxo-5-phenyl-1H-1,4-benzodiazepin-3-yl)-N'-(3-methylphenyl)urea] | 7.3 | > 1,400 | > 10000
Cc1cccc(NC(=O)NC2N=C(c3ccccn3)c3ccccc3N(CC(=O)C3CCCC3)C2=O)c1 (racemic) [Example 14, N-((3RS)-1-Cyclopentylcarbonylmethyl-2,3-dihydro-2-oxo-5-(2-pyridyl)-1H-1,4-benzodiazepin-3-yl)-N'-(3-methylphenyl)urea] |  | 22,000 | 
Cc1cccc(NC(=O)N[C@@H]2N=C(c3ccccc3)c3ccccc3N(C[C@@H](O)C3CCCC3)C2=O)c1 (racemic) [Example 13, N-((3RS)-1-((2SR)-2-Cyclopentyl-2-hydroxyethyl)-2,3-dihydro-2-oxo-5-phenyl-1H-1,4-benzodiazepin-3-yl)-N'-(3-methylphenyl)urea] | 0.11 | > 91,000 | > 10000
O=C(Nc1cccc(C(=O)O)c1)NC1N=C(c2ccccn2)c2ccccc2N(CC(=O)C2CCCC2)C1=O (racemic) [Example 22, N-((3RS)-1-Cyclopentylcarbonylmethyl-2,3-dihydro-2-oxo-5-(2-pyridyl)-1H-1,4-benzodiazepin-3-yl)-N'-(3-carboxyphenyl)urea] | 3.5 | > 2,900 | > 10000
O=C(Nc1cccc([N+](=O)[O-])c1)NC1N=C(c2ccccc2)c2ccccc2N(CC(=O)C2CCCC2)C1=O (racemic) [Example 44, N-((3RS)-1-Cyclopentylcarbonylmethyl-2,3-dihydro-2-oxo-5-phenyl-1H-1,4-benzodiazepin-3-yl)-N'-(3-nitrophenyl)urea] | 0.17 | 9,400 | 1600
Cc1cccc(NC(=O)N[C@@H]2N=C(c3ccccc3)c3ccccc3N(CC(=O)C3CCCC3)C2=O)c1 [Example 17, N-((3R)-1-Cyclopentylcarbonylmethyl-2,3-dihydro-2-oxo-5-phenyl-1H-1,4-benzodiazepin-3-yl)-N'-(3-methylphenyl)urea] | 0.07 | 36,000 | 2500
O=C(Nc1cccc(C(=O)O)c1)N[C@@H]1N=C(c2ccccc2)c2ccccc2N(CC(=O)C2CCCC2)C1=O [Example 23, N-((3R)-1-Cyclopentylcarbonylmethyl-2,3-dihydro-2-oxo-5-phenyl-1H-1,4-benzodiazepin-3-yl)-N'-(3-carboxyphenyl)urea] | 0.08 | 11,000 | 870
O=C(Nc1cccc(C(=O)O)c1)N[C@@H]1N=C(c2ccccc2)c2ccccc2N(CC(O)C2CCCC2)C1=O (mixture of isomers) [Example 24, N-((3R)-1-((2RS)-2-Cyclopentyl-2-hydroxyethyl)-2,3-dihydro-2-oxo-5-phenyl-1H-1,4-benzodiazepin-3-yl)-N'-(3-carboxyphenyl)urea] | 0.97 | > 10,000 | > 10000
Cc1cccc(NC(=O)NC2N=C(c3ccccc3)c3ccccc3N(CC(=O)CC3CCCCC3)C2=O)c1 (racemic) [Example 32, N-((3RS)-1-Cyclohexylmethylcarbonylmethyl-2,3-dihydro-2-oxo-5-phenyl-1H-1,4-benzodiazepin-3-yl)-N'-(3-methylphenyl)urea] |  | 1,700 | 480
Cc1cccc(NC(=O)N[C@@H]2N=C(c3ccccc3)c3ccccc3N(C[C@H](O)C3CCCC3)C2=O)c1 (racemic) [Example 12, N-((3RS)-1-((2RS)-2-Cyclopentyl-2-hydroxyethyl)-2,3-dihydro-2-oxo-5-phenyl-1H-1,4-benzodiazepin-3-yl)-N'-(3-methylphenyl)urea] | 1.4 | > 7,100 | > 10000
COc1cccc(NC(=O)NC2N=C(c3ccccc3)c3ccccc3N(CC(=O)C3CCCC3)C2=O)c1 (racemic) [Example 42, N-((3RS)-1-Cyclopentylcarbonylmethyl-2,3-dihydro-2-oxo-5-phenyl-1H-1,4-benzodiazepin-3-yl)-N'-(3-methoxyphenyl)urea] | 0.07 | 5,100 | 360
Cc1cccc(NC(=O)N[C@@H]2N=C(c3ccccc3)c3ccccc3N(C[C@H](O)C3CCCC3)C2=O)c1 [Example 19, N-((3R)-1-((2R)-2-Cyclopentyl-2-hydroxyethyl)-2,3-dihydro-2-oxo-5-phenyl-1H-1,4-benzodiazepin-3-yl)-N'-(3-methylphenyl)urea] | 0.92 | 1,200 | 1
O=C(O)Cc1cccc(NC(=O)NC2N=C(c3ccccc3)c3ccccc3N(CC(=O)C3CCCC3)C2=O)c1 (racemic) [Example 31, N-((3RS)-1-Cyclopentylcarbonylmethyl-2,3-dihydro-2-oxo-5-phenyl-1H-1,4-benzodiazepin-3-yl)-N'-(3-carboxymethylphenyl)urea] | 0.53 | 6,400 | 3400
